The results in this text go back to patent EP0437790B1, “Antithrombotic compounds” (MERRELL DOW PHARMACEUTICALS INC., priority 1989, dated 1991).

Test [1] addresses T1, 5HT₂ receptor (Rattus norvegicus, UniProt P14842).
T1 construct: from tissue; host or cells: Brain membranes (rat frontal cortex)
Description: [³H] spiroperidol binding test. Conditions: decrease in binding of [³H] spiroperidol to 5HT₂ receptors; read-out: IC₅₀. The source says: As noted above, the compounds are also serotonin 5HT₂ antagonists. […] In this test, 5HT₂ receptors are exposed to both [³H] spiroperidol, (a substance known to have a specific affinity for the receptor) and the test compound. The extent to which there is a decrease in binding of the [³H] spiroperidol to the receptor is indicative of the affinity of the test compound for the 5HT₂ receptor.
1-(4-Fluorophenyl)-2-[4-[(4-methanesulfonamidophenyl)carbonyl]-1-piperidinyl]-ethanone (Compound #1) and 1-(4-fluorophenyl)-2-[4-[(4-acetamidophenyl)carbonyl]-1-piperidinyl]-ethanone (Compound #2) were tested in this procedure. For comparative purposes, 1-(3-pyridyl)-2-[4-[(4-methanesulfonamidophenyl)carbonyl]-1-piperidinyl]-ethanone (Compound #3) was also tested.

Test [2] has as its system 5HT₂ receptor. Description: 5-DMT head twitch test. The format is in vivo. Conditions: ip; mice; head twitch induced by 5-methoxy-N,N-dimethyltryptamine. Here is the method:
Psychopharmacol., Vol. 3, pages 89-92, (1979). The administration of 5-methoxy-N,N-dimethyltryptamine (DMT) to mice typically produces a characteristic head twitch in the mice. In this test, the mice are administered 5-DMT and a test compound. An absence of head twitches in the mice is considered to be predictive of the ability of the test compound to antagonize the 5HT₂ receptor in vivo.

Test [3] relates to canine. Description: canine model of cyclic coronary blood flow reduction (Folts). The test is classed as in vivo. The conditions noted are these: Canis lupus familiaris, iv, cyclic flow reduction of the left anterior descending coronary artery, read-out: DOSAGE TO PREVENT CFR. The source says: This procedure is well known in the art and has been described by John D. Folts, Edward B. Crowell Jr. and George G. Rowe, Circulation Vol 54, pages 365-370 (1976).
In Folts's model, the left anterior descending coronary artery of a canine is surgically isolated and the endothelial lining of this artery is purposefully damaged by squeezing the vessel in order to insure that the platelets will have the opportunity to come in contact with the collagen underlying the endothelial lining. This initiates the process of thrombus formation which was described above. An electronic flow probe is then placed on the artery so that blood flow through this vessel can be measured. A constrictor is then placed around the artery to produce a critical stenosis. The stenosis is said to be critical because the degree of stenosis is adjusted to abolish the hyperemic response following a 15 second occlusion of the artery. Shortly after producing the critical stenosis, blood flow through this segment of coronary artery will slowly decrease to near zero followed by a sudden return to control levels. The slow decrease in blood flow is caused by the formation of a platelet thrombus which occludes the artery. The sudden return of blood flow is due to dislodgement of the thrombus and/or its resulting conversion into an emboli.
This model can be utilized to test compounds for the ability to inhibit platelet aggregation and therefore prevent the formation of thrombi.
1-(4-Fluorophenyl)-2-[4-[(4-methanesulfonamidophenyl)carbonyl]-1-piperidinyl]-ethanone (Compound #1) and 1-(4-fluorophenyl)-2-[4-[(4-acetamidophenyl)carbonyl]-1-piperidinyl]-ethanone (Compound #2) were tested in this model. For comparative purposes, 1-(3-pyridyl)-2-[4-[(4-methanesulfonamidophenyl)carbonyl]-1-piperidinyl]-ethanone (Compound #3) was also tested in this model. This compound was prepared and described in Example 35 of European Patent Application 0 235 752, supra.

T1 sequence (P14842 whole entry): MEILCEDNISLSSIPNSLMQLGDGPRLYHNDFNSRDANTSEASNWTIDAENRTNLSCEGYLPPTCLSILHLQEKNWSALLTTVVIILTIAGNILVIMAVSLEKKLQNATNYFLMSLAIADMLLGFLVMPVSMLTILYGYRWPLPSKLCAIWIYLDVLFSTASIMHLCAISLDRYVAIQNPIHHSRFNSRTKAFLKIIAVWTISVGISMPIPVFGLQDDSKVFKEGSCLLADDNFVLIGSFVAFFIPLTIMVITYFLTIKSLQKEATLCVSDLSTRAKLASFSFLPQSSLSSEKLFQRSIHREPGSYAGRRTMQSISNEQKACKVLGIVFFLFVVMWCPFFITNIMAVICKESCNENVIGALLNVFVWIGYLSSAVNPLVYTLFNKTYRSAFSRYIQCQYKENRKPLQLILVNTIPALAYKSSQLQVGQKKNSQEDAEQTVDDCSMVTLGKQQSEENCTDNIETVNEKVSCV

As for `CC(=O)Nc1ccc(C(=O)C2CCN(CC(=O)c3ccc(F)cc3)CC2)cc1` [Compound #2, 1-(4-fluorophenyl)-2-[4-[(4-acetamidophenyl)carbonyl]-1-piperidinyl]-ethanone], in test [1], the IC50 was found to be 20 nM. Besides, the “ED₅₀ FOR ABOLITION OF HEAD TWITCH” value in test [2] came to 0.051 mg/kg. The minimal effective dose in test [3] is 0.001 mg/kg.
The like results for `CS(=O)(=O)Nc1ccc(C(=O)C2CCN(CC(=O)c3cccnc3)CC2)cc1` [Compound #3, 1-(3-pyridyl)-2-[4-[(4-methanesulfonamidophenyl)carbonyl]-1-piperidinyl]-ethanone, reference compound] were, in that order, over 5000 nM, over 200 mg/kg and over 0.1 mg/kg.
For the compound `CS(=O)(=O)Nc1ccc(C(=O)C2CCN(CC(=O)c3ccc(F)cc3)CC2)cc1` [Compound #1, 1-(4-Fluorophenyl)-2-[4-[(4-methanesulfonamidophenyl)carbonyl]-1-piperidinyl]-ethanone], the IC50 in test [1] was found to be 78 nM. The “ED₅₀ FOR ABOLITION OF HEAD TWITCH” value in test [2] turned out to be 0.034 mg/kg. Moreover, in test [3], the minimal effective dose was 0.001 mg/kg.
